Source: patent publication US20050261332A1, “Sulfonamides and uses thereof” (priority 2004, published 2005)

Biological target: T1, GHS-R (Homo sapiens, UniProt Q92847)
T1 construct: expressed in transfected cells; host or cells: COS-7 cells
Test: GHS-R competition binding assay (Ki of GHS-R antagonizing compounds)
Procedure: One exemplary binding assay is as follows: GHS-R expressing COS-7 cells cultured at a density of 1×10^5 cells per well so that binding is assayed in the range of about 5-8 % binding of the radioactive ligand. For example, the cells can express an endogenous nucleic acid encoding GHS-R or an exogenous nucleic acid encoding GHS-R. Cells transfected with an exogenous nucleic acid encoding GHS-R can be used, e.g., two days, after transfection. Competition binding experiments are performed for 3 hours at 4° C. using 25 pM of ^125I-ghrelin in 0.5 ml of 50 mM HEPES buffer, pH 7.4, supplemented with 1 mM CaCl2, 5 mM MgCl2, and 0.1% (w/v) bovine serum albumin, 40 mg/ml bacitracin. Non-specific binding can be determined as the binding in the presence of […] of unlabeled ghrelin. Cells are washed twice in 0.5 ml of ice-cold buffer and then lysed with 0.5-1 ml of lysis buffer (8 M Urea, 2% NP40 in 3 M acetic acid). After washing and lysis, the bound radioactivity is counted. Assays can be run in duplicate or triplicate, e.g., to provide statistical power.
Values of the dissociation and inhibition constants (Kd and Ki) can be estimated from competition binding experiments using the equation: Kd=IC50-L and Ki=IC50/(1+L/Kd), where L is the concentration of radioactive ligand. Bmax values can be estimated from competition binding experiments using the equation Bmax=B0 IC50/[ligand], where B0 is the specifically bound radioligand.

T1 sequence (Q92847 whole entry, species assumed): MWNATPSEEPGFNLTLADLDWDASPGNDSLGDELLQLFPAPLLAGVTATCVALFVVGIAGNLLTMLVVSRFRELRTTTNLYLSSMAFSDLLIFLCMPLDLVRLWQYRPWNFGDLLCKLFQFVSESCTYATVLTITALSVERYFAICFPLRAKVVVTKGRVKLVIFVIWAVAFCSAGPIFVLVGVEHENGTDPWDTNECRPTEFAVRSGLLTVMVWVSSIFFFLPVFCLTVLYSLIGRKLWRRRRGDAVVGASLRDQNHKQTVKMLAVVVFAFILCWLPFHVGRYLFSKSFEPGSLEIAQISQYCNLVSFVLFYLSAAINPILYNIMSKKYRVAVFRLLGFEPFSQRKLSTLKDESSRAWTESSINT

| Structure (SMILES) | Ki |
| --- | --- |
| CN(C)CCS(=O)(=O)N[C@H](COCc1ccccc1)C(=O)N1CCC2(CC1)CN(S(C)(=O)=O)c1ccccc12 [Compound 128, (R)-N-(3-(benzyloxy)-1-(1-(methylsulfonyl)spiro[indoline-3,4′-piperidine]-1′-yl)-1-oxopropan-2-yl)-2-(dimethylamino)ethanesulfonamide] | 100 to 1000 nM |
| CN1CCN(CCS(=O)(=O)N[C@H](COCc2ccccc2)C(=O)N2CCC3(CC2)CN(S(C)(=O)=O)c2ccccc23)CC1 [Compound 129, (R)-N-(3-(benzyloxy)-1-(1-(methylsulfonyl)spiro[indoline-3,4′-piperidine]-1′-yl)-1-oxopropan-2-yl)-2-(4-methylpiperazin-1-yl)ethanesulfonamide] | > 1000 nM |
| CCN(CCS(=O)(=O)N[C@H](COCc1ccccc1)C(=O)N1CCC2(CC1)CN(S(C)(=O)=O)c1ccccc12)C(C)C [Compound 133, (R)-N-(3-(benzyloxy)-1-(1-(methylsulfonyl)spiro[indoline-3,4′-piperidine]-1′-yl)-1-oxopropan-2-yl)-2-(ethyl(isopropyl)amino)ethanesulfonamide] | > 1000 nM |
| CS(=O)(=O)N1CC2(CCN(C(=O)[C@@H](COCc3ccccc3)NS(=O)(=O)CCN3CCC3)CC2)c2ccccc21 [Compound 134, (R)-2-(azetidin-1-yl)-N-(3-(benzyloxy)-1-(1-(methylsulfonyl)spiro[indoline-3,4′-piperidine]-1′-yl)-1-oxopropan-2-yl)ethanesulfonamide] | > 1000 nM |
| CS(=O)(=O)N1CC2(CCN(C(=O)[C@@H](COCc3ccccc3)NS(=O)(=O)CCN3CCCC3)CC2)c2ccccc21 [Compound 136, (R)-N-(3-(benzyloxy)-1-(1-(methylsulfonyl)spiro[indoline-3,4′-piperidine]-1′-yl)-1-oxopropan-2-yl)-2-(pyrrolidin-1-yl)ethanesulfonamide] | 100 to 1000 nM |
| CN1CCC(S(=O)(=O)N[C@H](COCc2ccccc2)C(=O)N2CCC3(CC2)CN(S(C)(=O)=O)c2ccccc23)CC1 [Compound 137, (R)-N-(3-(benzyloxy)-1-(1-(methylsulfonyl)spiro[indoline-3,4′-piperidine]-1′-yl)-1-oxopropan-2-yl)-1-methylpiperidine-4-sulfonamide] | < 100 nM |
| CC(C)NCCS(=O)(=O)N[C@H](COCc1ccccc1)C(=O)N1CCC2(CC1)CN(S(C)(=O)=O)c1ccccc12 [Compound 140, (R)-N-(3-(benzyloxy)-1-(1-(methylsulfonyl)spiro[indoline-3,4′-piperidine]-1′-yl)-1-oxopropan-2-yl)-2-(isopropylamino)ethanesulfonamide] | > 1000 nM |
| CC(C)(C)NCCCS(=O)(=O)N[C@H](COCc1ccccc1)C(=O)N1CCC2(CC1)CN(S(C)(=O)=O)c1ccccc12 [Compound 143, (R)-N-(3-(benzyloxy)-1-(1-(methylsulfonyl)spiro[indoline-3,4′-piperidine]-1′-yl)-1-oxopropan-2-yl)-3-(tert-butylamino)propane-1-sulfonamide] | 100 to 1000 nM |
| CS(=O)(=O)N1CC2(CCN(C(=O)[C@@H](COCc3ccccc3)NS(=O)(=O)CCN3C4CCCC3CC4)CC2)c2ccccc21 [Compound 144, N-((R)-3-(benzyloxy)-1-(1-(methylsulfonyl)spiro[indoline-3,4′-piperidine]-1′-yl)-1-oxopropan-2-yl)-2-(8-azabicyclo[3.2.1]octan-8-yl)ethanesulfonamide] | 100 to 1000 nM |
| CS(=O)(=O)N1CC2(CCN(C(=O)[C@@H](COCc3ccccc3)NS(=O)(=O)CCCCl)CC2)c2ccccc21 [Compound 146, (R)-N-(3-(benzyloxy)-1-(1-(methylsulfonyl)spiro[indoline-3,4′-piperidine]-1′-yl)-1-oxopropan-2-yl)-3-chloropropane-1-sulfonamide] | < 100 nM |
| CN(C)CCCS(=O)(=O)N[C@H](COCc1ccccc1)C(=O)N1CCC2(CC1)CN(S(C)(=O)=O)c1ccccc12 [Compound 149, (R)-N-(3-(benzyloxy)-1-(1-(methylsulfonyl)spiro[indoline-3,4′-piperidine]-1′-yl)-1-oxopropan-2-yl)-3-(dimethylamino)propane-1-sulfonamide] | 100 to 1000 nM |
| CS(=O)(=O)N1CC2(CCN(C(=O)[C@@H](COCc3ccccc3)NS(=O)(=O)CCCNC3CC3)CC2)c2ccccc21 [Compound 150, (R)-N-(3-(benzyloxy)-1-(1-(methylsulfonyl)spiro[indoline-3,4′-piperidine]-1′-yl)-1-oxopropan-2-yl)-3-(cyclopropylamino)propane-1-sulfonamide] | > 1000 nM |
| CS(=O)(=O)N1CC2(CCN(C(=O)[C@@H](COCc3ccccc3)NS(=O)(=O)CCCN3CCCC3)CC2)c2ccccc21 [Compound 152, (R)-N-(3-(benzyloxy)-1-(1-(methylsulfonyl)spiro[indoline-3,4′-piperidine]-1′-yl)-1-oxopropan-2-yl)-3-(pyrrolidin-1-yl)propane-1-sulfonamide] | < 100 nM |
| NC(=O)c1ccccc1-c1ccc(CNC(=O)[C@@H](COCc2ccccc2)NS(=O)(=O)CCCCl)cc1 [Compound 153, (R)-4′-{[3-Benzyloxy-2-(3-chloro-propane-1-sulfonylamino)-propionylamino]-methyl}-biphenyl-2-carboxylic acid amide] | > 1000 nM |

Second part, the compound after the results:

| Ki | Structure (SMILES) |
| --- | --- |
| 100 to 1000 nM | CCN(C)CCS(=O)(=O)N[C@H](COCc1ccccc1)C(=O)N1CCC2(CC1)CN(S(C)(=O)=O)c1ccccc12 [Compound 130, (R)-N-(3-(benzyloxy)-1-(1-(methylsulfonyl)spiro[indoline-3,4′-piperidine]-1′-yl)-1-oxopropan-2-yl)-2-(ethyl(methyl)amino)ethanesulfonamide] |
| 100 to 1000 nM | CC(C)N(C)CCS(=O)(=O)N[C@H](COCc1ccccc1)C(=O)N1CCC2(CC1)CN(S(C)(=O)=O)c1ccccc12 [Compound 131, (R)-N-(3-(benzyloxy)-1-(1-(methylsulfonyl)spiro[indoline-3,4′-piperidine]-1′-yl)-1-oxopropan-2-yl)-2-(isopropyl(methyl)amino)ethanesulfonamide] |
| < 100 nM | CCN(CC)CCS(=O)(=O)N[C@H](COCc1ccccc1)C(=O)N1CCC2(CC1)CN(S(C)(=O)=O)c1ccccc12 [Compound 132, (R)-N-(3-(benzyloxy)-1-(1-(methylsulfonyl)spiro[indoline-3,4′-piperidine]-1′-yl)-1-oxopropan-2-yl)-2-(diethylamino)ethanesulfonamide] |
| 100 to 1000 nM | CS(=O)(=O)N1CC2(CCN(C(=O)[C@@H](COCc3ccccc3)NS(=O)(=O)CCN3CCCCC3)CC2)c2ccccc21 [Compound 135, (R)-N-(3-(benzyloxy)-1-(1-(methylsulfonyl)spiro[indoline-3,4′-piperidine]-1′-yl)-1-oxopropan-2-yl)-2-(piperidin-1-yl)ethanesulfonamide] |
| > 1000 nM | CS(=O)(=O)N1CC2(CCN(C(=O)[C@@H](COCc3ccccc3)NS(=O)(=O)CCN3CCOCC3)CC2)c2ccccc21 [Compound 138, (R)-N-(3-(benzyloxy)-1-(1-(methylsulfonyl)spiro[indoline-3,4′-piperidine]-1′-yl)-1-oxopropan-2-yl)-2-morpholinoethanesulfonamide] |
| 100 to 1000 nM | CC(C)(C)NCCS(=O)(=O)N[C@H](COCc1ccccc1)C(=O)N1CCC2(CC1)CN(S(C)(=O)=O)c1ccccc12 [Compound 139, (R)-N-(3-(benzyloxy)-1-(1-(methylsulfonyl)spiro[indoline-3,4′-piperidine]-1′-yl)-1-oxopropan-2-yl)-2-(tert-butylamino)ethanesulfonamide] |
| < 100 nM | CC(C)NCCCS(=O)(=O)N[C@H](COCc1ccccc1)C(=O)N1CCC2(CC1)CN(S(C)(=O)=O)c1ccccc12 [Compound 141, (R)-N-(3-(benzyloxy)-1-(1-(methylsulfonyl)spiro[indoline-3,4′-piperidine]-1′-yl)-1-oxopropan-2-yl)-3-(isopropylamino)propane-1-sulfonamide] |
| > 1000 nM | CS(=O)(=O)N1CC2(CCN(C(=O)[C@@H](COCc3ccccc3)NS(=O)(=O)CCCN3CCOCC3)CC2)c2ccccc21 [Compound 142, (R)-N-(3-(benzyloxy)-1-(1-(methylsulfonyl)spiro[indoline-3,4′-piperidine]-1′-yl)-1-oxopropan-2-yl)-3-morpholinopropane-1-sulfonamide] |
| > 1000 nM | CN1C2CCC1CC(S(=O)(=O)N[C@H](COCc1ccccc1)C(=O)N1CCC3(CC1)CN(S(C)(=O)=O)c1ccccc13)C2 (stereo partly drawn) [Compound 145, N-((R)-3-(benzyloxy)-1-(1-(methylsulfonyl)spiro[indoline-3,4′-piperidine]-1′-yl)-1-oxopropan-2-yl)-8-methyl-8-azabicyclo[3.2.1]octane-3-sulfonamide] |
| 100 to 1000 nM | CN1CCC(S(=O)(=O)N[C@H](COCc2ccccc2)C(=O)N2CCC3(C=Cc4ccccc43)CC2)CC1 [Compound 147, (R)-N-(3-(benzyloxy)-1-oxo-1-(spiro[indene-1,4′-piperidine]-1′-yl)propan-2-yl)-1-methylpiperidine-4-sulfonamide] |
| 100 to 1000 nM | CCN(CC)CCCS(=O)(=O)N[C@H](COCc1ccccc1)C(=O)N1CCC2(CC1)CN(S(C)(=O)=O)c1ccccc12 [Compound 148, (R)-N-(3-(benzyloxy)-1-(1-(methylsulfonyl)spiro[indoline-3,4′-piperidine]-1′-yl)-1-oxopropan-2-yl)-3-(diethylamino)propane-1-sulfonamide] |
